# Source: patent US12419947B2, “Inorganic polyatomic oxyanions for protecting against antigenic damage during pathogen inactivation for vaccine production” (priority 2016, dated 2025)
# How the values were obtained:
# [1] = test system: dengue serotype 4 (DENV4); experiment: DENV4 live virus plaque assay on Vero cells; format: cell-based, dengue virus; conditions: for rate of inactivation (viable virus at 1 hr post-inactivation): H2O2=0.01%, compound 10 μM; for virus inactivation with added salt during H2O2/CuCl2 inactivation: 0.01% H2O2, 1 μM CuCl2, 20 hours
# [2] = test system: dengue serotype 4 (DENV4); experiment: DENV-specific sandwich ELISA (MAbs 15A5 and 6H6) on treated DENV4; format: binding, dengue virus; conditions: for antigenicity (ELISA at 20 hrs post-inactivation): H2O2=0.01%, compound 10 μM; for ELISA signal / antigenicity with added salt during H2O2/CuCl2 inactivation: 0.01% H2O2, 1 μM CuCl2, 20 hours, vs standard conditions; for ELISA signal with added oxyanion during formaldehyde inactivation: 0.01% formaldehyde, 20 days at 37° C.; for ELISA signal with added oxyanion during BPL inactivation: 0.1% BPL
# [3] = test system: yellow fever virus (YFV)
# [4] = test system: chikungunya virus (CHIKV); experiment: CHIKV-specific sandwich ELISA (retained antigenicity); format: binding
# [5] = test system: DENV2; experiment: DENV2 inactivation kinetics (PFU assay); format: cell-based, dengue virus; conditions: 3% H2O2, or 0.01% H2O2 and 1 μM CuCl2, room temperature
# [6] = test system: Campylobacter coli (C. coli); experiment: Campylobacter morphology after inactivation (Gram safranin stain); conditions: 3% H2O2 5 hours, or 0.01% H2O2 and 2 uM CuCl2
# [7] = test system: dengue virus 3 (DENV3); experiment: DENV-specific sandwich ELISA on treated DENV3; format: binding; conditions: H2O2 0.01%
# [8] = test system: chikungunya virus (CHIKV); format: cell-based
# [9] = test system: smallpox; conditions: in vivo; cited from earlier work
# [10] = test system: Shigella dysenteriae; experiment: Shigella dysenteriae inactivation (CFU/mL); format: cell-based; conditions: H2O2=0.10%, CuCl2=10 μM, MZ=100 μM, 150 mM NaPO4
# [11] = test system: Campylobacter coli (C. coli); experiment: C. coli inactivation (viable bacteria over time); format: cell-based; conditions: H2O2=0.01%, MZ=20 μM, 150 mM NaPO4
# [12] = test system: vaccinia; conditions: cited from earlier work
# [13] = test system: vaccinia virus (VV); format: cell-based; conditions: H2O2=0.002%, CuCl2=1 μM, MZ=10 μM, PBS pH=7.5
# [14] = test system: Listeria monocytogenes; experiment: Listeria monocytogenes inactivation (CFU/mL); format: cell-based; conditions: H2O2=0.10%, MZ=100 μM, 150 mM NaPO4
# [15] = 0.01% formaldehyde with high oxyanion, 20 days at 37° C.
# [16] = 0.1% BPL with high oxyanion, 20 hours
# [17] = BEI, Na2HPO4 150 mM, 20 hours at 37° C.
# [18] = 20 hours, room temperature, 150 mM NaPO4
smiles,measurement,setting,value
CCCN1C(=O)C(=NNC(N)=S)c2ccccc21 [N-propylisatin β-thiosemicarbazone],rate of inactivation (viable virus at 1 hr post-inactivation),"[1]; CuCl2=1 μM, 150 mM NaPO4",enhanced rates of inactivation
same,antigenicity (ELISA at 20 hrs post-inactivation),"[2]; CuCl2=1 μM, 150 mM NaPO4",superior antigenicity
"[Cl-].[Cl-].[Mg+2] [magnesium chloride, reference compound]",ELISA signal / antigenicity with added salt during H2O2/CuCl2 inactivation,[2]; room temperature,no protective effect on antigenicity
"O=C1CCO1 [BPL, β-propiolactone, reference compound]",ELISA signal,"[2]; standard BPL conditions: 0.1% BPL, 20 hours, room temperature",loss of ELISA signal
"OO [H2O2, hydrogen peroxide]",neutralizing epitopes (antigenicity),[3],severe damage to neutralizing epitopes
same,antigenicity (in vitro potency testing using envelope-specific MAbs),[4]; 3% H2O2 under standard conditions,nearly complete loss of antigenicity
same,kinetics of virus inactivation versus total viral protein concentration,[5],protein concentration-independent
same,bacterial morphology,[6],substantially damaged with clear changes in morphology
[Cl][Fe]([Cl])[Cl] [FeCl3],antigenicity with increasing FeCl3 concentrations,[7],enhanced antigenicity
O=P([O-])([O-])OP(=O)([O-])OP(=O)([O-])[O-].[Na+].[Na+].[Na+].[Na+].[Na+] [sodium triphosphate],virus inactivation with added salt during H2O2/CuCl2 inactivation,[1],completely inactivated
same,ELISA signal / antigenicity with added salt during H2O2/CuCl2 inactivation,[2]; room temperature,increased ELISA signals
"O=P(O)(O)O [Na2HPO4, sodium phosphate]",ELISA signal with added oxyanion during H2O2/CuCl2 inactivation,"[4]; 0.01% H2O2, 5 μM CuCl2, 20 hours, 150 mM Na2HPO4 with or without 3 mM Na3P3O9",increased ELISA signals
same,"residual live virus (co-culture, estimated LOD of 100 PFU/mL)",[8],completely inactivated
same,virus inactivation with added salt during H2O2/CuCl2 inactivation,[1],complete virus inactivation
same,virus inactivation,[1]; [15],completely inactivated
same,virus inactivation,[1]; [16],completely inactivated
same,kinetics of virus inactivation in presence vs absence of high Na2HPO4,"[1]; 150 mM vs 10 mM, 0.01% H2O2, 1 μM CuCl2",similar
same,virus inactivation,[1]; [17],completely inactivated
same,ELISA signal / antigenicity with added salt during H2O2/CuCl2 inactivation,[2]; room temperature,increased ELISA signal
same,ELISA signal with added oxyanion during formaldehyde inactivation,[2],increased ELISA signals
same,ELISA signal with added oxyanion during BPL inactivation,"[2]; 20 hours, room temperature",increased ELISA signals
same,ELISA signal with added oxyanion during BEI inactivation,[2]; [17],increased ELISA signals
O=S(=O)([O-])[O-].[Mg+2] [magnesium sulfate],virus inactivation with added salt during H2O2/CuCl2 inactivation,[1],complete virus inactivation
same,ELISA signal / antigenicity with added salt during H2O2/CuCl2 inactivation,[2]; room temperature,improved antigenicity
NC(=S)NN=C1C(=O)Nc2ccccc21 [isatin β-thiosemicarbazone],rate of inactivation (viable virus at 1 hr post-inactivation),"[1]; CuCl2=1 μM, 150 mM NaPO4",enhanced rates of inactivation
same,antigenicity (ELISA at 20 hrs post-inactivation),"[2]; CuCl2=1 μM, 150 mM NaPO4",superior antigenicity
"[Cl-].[Na+] [sodium chloride, reference compound]",ELISA signal / antigenicity with added salt during H2O2/CuCl2 inactivation,[2]; room temperature,no protective effect on antigenicity
NNC(N)=O [semicarbazide],rate of inactivation (viable virus at 1 hr post-inactivation),"[1]; CuCl2=1 μM, 150 mM NaPO4",do not appear to increase the rate of inactivation
same,antigenicity (ELISA at 20 hrs post-inactivation),"[2]; CuCl2=1 μM, 150 mM NaPO4",protection of protein antigens from oxidative damage
O=S(=O)([O-])[O-].[Na+].[Na+] [sodium sulfate],virus inactivation with added salt during H2O2/CuCl2 inactivation,[1],complete virus inactivation
same,virus inactivation,[1]; [15],completely inactivated
same,virus inactivation,[1]; [16],completely inactivated
same,ELISA signal / antigenicity with added salt during H2O2/CuCl2 inactivation,[2]; room temperature,improved antigenicity
same,ELISA signal with added oxyanion during formaldehyde inactivation,[2],increased ELISA signals
same,ELISA signal with added oxyanion during BPL inactivation,"[2]; 20 hours, room temperature",increased ELISA signals
NNC(N)=S [thiosemicarbazide],rate of inactivation (viable virus at 1 hr post-inactivation),"[1]; CuCl2=1 μM, 150 mM NaPO4",enhancement of inactivation
same,antigenicity (ELISA at 20 hrs post-inactivation),"[2]; CuCl2=1 μM, 150 mM NaPO4",superior antigenicity
"CN1C(=O)/C(=N\NC(N)=S)c2ccccc21 [methisazone, N-methyl-isatin β-thiosemicarbazone]",antigenicity on addition of methisazone to dual oxidation,[4]; [18],maintained or significantly improved antigenicity
same,retained antigenicity at 20 hrs with increasing methisazone relative to the transition metal,"[4]; H2O2 0.02%, CuCl2 1 μM, 150 mM NaPO4",improvements in both retained antigenicity
same,increase of the rate of inactivation on addition of methisazone,[8],10- to 20 fold
same,rate of dual-oxidation-based inactivation on addition of methisazone,[8],substantially increase the rate
same,virus inactivation (plaque assay at 1 hr) with increasing methisazone relative to the transition metal,[8],increased virus inactivation rates
same,virus inactivation by methisazone alone,[8],minimal impact
same,deaths among close contacts receiving methisazone,[9],no deaths
same,inactivation rate on addition of methisazone to H2O2/CuCl2,[10],substantially enhanced inactivation rates
same,inactivation rate on addition of methisazone to H2O2/CuCl2,[11],substantially enhanced inactivation rates
same,serious adverse events,"[12]; mean initial dose 152 mg/kg, total average 809 mg/kg over 3.75 days",lack of serious adverse events
same,complications of vaccinia vaccination,[12]; used prophylactically prior to vaccinia vaccination,reduce complications
same,rate of dual-oxidation-based inactivation on addition of methisazone,[13],substantially increase the rate
same,rate of dual-oxidation-based inactivation on addition of methisazone,"[1]; H2O2=0.002%, CuCl2=1 μM, MZ=10 μM, 150 mM NaPO4",substantially increase the rate
same,virus inactivation by methisazone alone,[1]; MZ=10 μM,minimal impact
same,increase of the rate of inactivation on addition of methisazone,"[1]; dual oxidation, 150 mM NaPO4, stated for CHIKV and DENV4 together",10- to 20 fold
same,inactivation rate on addition of methisazone to H2O2/CuCl2,[14],substantially enhanced inactivation rates
same,antigenicity on addition of methisazone to dual oxidation,[2]; [18],maintained or significantly improved antigenicity
same,"antigenicity, methisazone together with polyatomic oxyanions","[2]; H2O2=0.002%, CuCl2=1 μM, 150 mM Na2HPO4, methisazone 10 μM, 20 hours",higher antigenicity than could be achieved by either approach in isolation
O=P1([O-])OP(=O)([O-])OP(=O)([O-])O1.[Na+].[Na+].[Na+] [sodium trimetaphosphate],virus inactivation with added salt during H2O2/CuCl2 inactivation,[1],completely inactivated
same,ELISA signal / antigenicity with added salt during H2O2/CuCl2 inactivation,[2]; room temperature,increased ELISA signals
O=C1Nc2ccccc2C1=O [isatin],rate of inactivation (viable virus at 1 hr post-inactivation),"[1]; CuCl2=1 μM, 150 mM NaPO4",do not appear to increase the rate of inactivation
same,antigenicity (ELISA at 20 hrs post-inactivation),"[2]; CuCl2=1 μM, 150 mM NaPO4",protection of protein antigens from oxidative damage
